Assay results taken from patent publication US10780092B2, “Fused pyrazine derivatives useful as soluble guanylate cyclase stimulators” (Merck Sharp & Dohme Corp., priority 2016, dated 2020).

Legend:
sGC α1/β1 heterodimer = sGC α1/β1 heterodimer (Homo sapiens (Human), UniProt Q02108+Q02153); test: Cell-based sGC functional assay (CASA assay), cGMP by HTRF; details: CHO-K1/sGC cells; for Emax: CHO-K1, cGMP production as percentage of maximum of compound A (set to 100%), read-out: % Activation; for EC50: inflection point of cGMP production, 4P fit, read-out: IP
How it was run: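 CHO-K1 cells stably expressing human sGC α1/β1, with 0.5 mM IBMX, pre-incubated ±1 μM DETA-NO 30 min at 25° C, then compound 1 hr at 37° C (2.5% DMSO). cGMP by HTRF; activation as % of reference activator maximum, 4P fit giving inflection point and maximum […].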

[1] = biological target: human recombinant sGC enzyme (Homo sapiens (Human), UniProt Q02108+Q02153); test: SEC competition binding assay with [3H] Compound B radioligand; details: displacement of 1.6 nM [3H] Compound B, 24 h at 37° C.
How it was run: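 Recombinant human sGC incubated with 1.6 nM [3H] Compound B and test compounds for 24 h at 37° C. Buffer: 50 mM triethanolamine pH 7.4, 3 mM MgCl2, 0.025% BSA, 2 mM DTT, 300 μM DETA/NO, 400 μM GTP, 1% DMSO. Bound ligand separated by gel filtration and counted by scintillation; non-specific binding with 1 μM Compound B; Ki from one-site fit.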

Row | Compound | Emax (sGC α1/β1 heterodimer) [%] | EC50 (sGC α1/β1 heterodimer) [nM] | Ki [1] [nM] | % Activation (sGC α1/β1 heterodimer; cGMP production as percentage of maximum of compound A (set to 100%)) [%]
1 | Cc1cn2cc(-c3nc(N)c4c(n3)NC(=O)C4(C)c3ccc(Cl)c(O)c3)nc(Cc3cccc(F)c3)c2n1 (stereo not drawn) [Example 99-A, 4-Amino-5-(4-chloro-3-hydroxyphenyl)-2-{8-[(3-fluorophenyl)methyl]-2-methylimidazo[1,2-a]pyrazin-6-yl}-5-methyl-5,7-dihydro-6H-pyrrolo[2,3-d]pyrimidin-6-one] | 97 | 553 | 0.803 | –
2 | CCCCc1nc(-c2nc(N)c3c(n2)NC(=O)C3(C)c2cccc(O)c2)cn2ncnc12 (stereo not drawn) [Example 68-B, 4-Amino-2-(8-butyl-[1,2,4]triazolo[1,5-a]pyrazin-6-yl)-5-(3-hydroxyphenyl)-5-methyl-5,7-dihydro-6H-pyrrolo[2,3-d]pyrimidin-6-one] | 96 | 46 | 2.92 | –
3 | CC1(c2cc(O)c(C#N)c(Cl)c2)C(=O)Nc2nc(-c3cn4ccnc4c(Cc4cccc(F)c4)n3)nc(N)c21 (stereo not drawn) [Example 144-A, 4-(4-amino-2-{8-(3-fluorobenzyl)imidazo-[1,2-a]pyrazin-6-yl}-5-methyl-6-oxo-6,7-dihydro-5H-pyrrolo-[2,3-d]pyrimidin-5-yl)-2-chloro-6-hydroxy-benzonitrile] | 91 | 2680 | 0.333 | –
4 | CC1(c2ccc(Cl)c(O)c2)C(=O)Nc2nc(-c3cn4ccnc4c(CC4CCC(F)(F)CC4)n3)nc(N)c21 (stereo not drawn) [Example 95-A, 4-Amino-5-(4-chloro-3-hydroxyphenyl)-2-(8-((4,4-difluorocyclohexyl)methyl)imidazo [1,2-a]pyrazin-6-yl)-5-methyl-5,7-dihydro-6H-pyrrolo[2,3-d]pyrimidin-6-one] | 96 | 1810 | 14.4 | –
5 | CC1(c2ccc(O)c(Cl)c2)C(=O)Nc2nc(-c3cn4ncnc4c(Cc4ccc(F)cc4)n3)nc(N)c21 (stereo not drawn) [Example 66-B, 4-Amino-5-(3-chloro-4-hydroxyphenyl)-2-{8-[(4-fluorophenyl)methyl]-[1,2,4]triazolo[1,5-a]pyrazin-6-yl}-5-methyl-5,7-dihydro-6H-pyrrolo[2,3-d]pyrimidin-6-one] | 141 | 2150 | 2.57 | –
6 | CC1(c2ccc(Cl)c(O)c2)C(=O)Nc2nc(-c3cn4ccnc4c(Cc4cccc(F)c4)n3)nc(NCC(O)C(F)(F)F)c21 (stereo not drawn) [Example 131-AA, 5-(4-Chloro-3-hydroxy-phenyl)-2-{8-[(3-fluoro-phenyl)methyl]imidazo-[1,2-a]pyrazin-6-yl}-5-methyl-4-[(3,3,3-trifluoro-2-hydroxypropyl)amino]-5,7-dihydro-6H-pyrrolo-[2,3-d]pyrimidin-6-one] | 89 | 427 | 0.884 | –
7 | CC1(c2cc(O)c(Cl)cn2)C(=O)Nc2nc(-c3cn4ccnc4c(Cc4c(F)cccc4F)n3)nc(N)c21 (stereo not drawn) [Example 98-B, 4-Amino-5-(5-chloro-4-hydroxypyridin-2-yl)-2-{8-[(2,6-difluorophenyl)methyl]imidazo[1,2-a]pyrazin-6-yl}-5-methyl-5,7-dihydro-6H-pyrrolo[2,3-d]pyrimidin-6-one] | 73 | 3300 | 8.31 | –
8 | CC(C)CCc1nc(-c2nc(N)c3c(n2)NC(=O)C3(C)c2ccc(F)c(O)c2)cn2ccnc12 (stereo not drawn) [Example 47-B, 4-Amino-5-(4-fluoro-3-hydroxyphenyl)-2-(8-isopentylimidazo[1,2-a]pyrazin-6-yl)-5-methyl-5,7-dihydro-6H-pyrrolo[2,3-d]pyrimidin-6-one] | 103 | 70 | 0.676 | –
9 | CC1(c2cc(Cl)c(O)cn2)C(=O)Nc2nc(-c3cn4ccnc4c(Cc4ccccc4F)n3)nc(N)c21 (single isomer, unassigned) [Example 53-B, 4-Amino-5-(4-chloro-5-hydroxypyridin-2-yl)-2-{8-[(2-fluorophenyl)methyl]imidazo[1,2-a]pyrazin-6-yl}-5-methyl-5,7-dihydro-6H-pyrrolo[2,3-d]pyrimidin-6-one] | – | 771 | 1.08 | 144
10 | CC1(c2ccc(F)c(O)c2)C(=O)Nc2nc(-c3cn4ccnc4c(CCC4CCCCC4)n3)nc(N)c21 (stereo not drawn) [Example 86-B, 4-Amino-2-(8-(2-cyclohexylethyl)imidazo[1,2-a]pyrazin-6-yl)-5-(4-fluoro-3-hydroxyphenyl)-5-methyl-5,7-dihydro-6H-pyrrolo[2,3-d]pyrimidin-6-one] | 122 | 166 | 2.22 | –
11 | CC1(c2cc(Cl)c(O)cn2)C(=O)Nc2nc(-c3cn4ccnc4c(Cc4ccccc4F)n3)nc(N)c21 (single isomer, unassigned) [Example 104-B, 4-Amino-5-(4-chloro-5-hydroxypyridin-2-yl)-2-{8-[(2-fluorophenyl)methyl]imidazo[1,2-a]pyrazin-6-yl}-5-methyl-5,7-dihydro-6H-pyrrolo[2,3-d]pyrimidin-6-one] | 144 | 813 | 1.1 | –
12 | CC1(c2ccc(F)c(Cl)c2O)C(=O)Nc2nc(-c3cn4ccnc4c(Cc4cc(F)cc(F)c4)n3)nc(N)c21 (stereo not drawn) [Example 96-B, 4-Amino-5-(3-chloro-4-fluoro-2-hydroxyphenyl)-2-{8-[(3,5-difluorophenyl)methyl]imidazo[1,2-a]pyrazin-6-yl}-5-methyl-5,7-dihydro-6H-pyrrolo[2,3-d]pyrimidin-6-one] | 169 | 138 | 0.862 | –
13 | CN1CCN(c2nc(-c3cn4ccnc4c(Cc4ccc(F)cc4)n3)nc3c2C(C)(c2ccc(Cl)c(O)c2)C(=O)N3)CC1 (stereo not drawn) [Example 134-A, 5-(4-Chloro-3-hydroxy-phenyl)-2-{8-[(4-fluoro-phenyl)methyl]imidazo-[1,2-a]pyrazin-6-yl}-5-methyl-4-(4-methyl-piperazin-1-yl)-5,7-dihydro-6H-pyrrolo-[2,3-d]pyrimidin-6-one] | 102 | 333 | 0.592 | –
14 | CC1(c2ccc(C(F)(F)F)c(O)c2)C(=O)Nc2nc(-c3cn4ccnc4c(Cc4cc(F)cc(F)c4F)n3)nc(N)c21 (stereo not drawn) [Example 33-B, 4-Amino-5-(3-hydroxy-4-(trifluoromethyl)phenyl)-5-methyl-2-{8-[(2,3,5-trifluorophenyl)methyl]imidazo[1,2-a]pyrazin-6-yl}-5,7-dihydro-6H-pyrrolo[2,3-d]pyrimidin-6-one] | 111 | 260 | 0.312 | –
15 | CC1(c2cc(O)ccn2)C(=O)Nc2nc(-c3cn4ncnc4c(Cc4cccc(F)c4)n3)nc(N)c21 (stereo not drawn) [Example 110-B, 4-Amino-2-{8-[(3-fluorophenyl)methyl]-[1,2,4]triazolo[1,5-a]-pyrazin-6-yl}-5-(4-hydroxypyridin-2-yl)-5-methyl-5,7-dihydro-6H-pyrrolo[2,3-d]pyrimidin-6-one] | 159 | 437 | 1.62 | –
16 | Cc1cnc(C2(C)C(=O)Nc3nc(-c4cn5ccnc5c(Cc5cccc(F)c5)n4)nc(N)c32)cc1O (stereo not drawn) [Example 151-A, 4-Amino-2-{8-(3-fluorobenzyl)imidazo[1,2-a]pyrazin-6-yl}-5-(4-hydroxy-5-methylpyridin-2-yl)-5-methyl-5,7-dihydro-6H-pyrrolo[2,3-d]pyrimidin-6-one] | 84 | 1790 | 0.155 | –
17 | CC1(c2ccc(O)cc2)C(=O)Nc2nc(-c3cn4ccnc4c(Cc4ccc(F)cc4)n3)nc(N)c21 (stereo not drawn) [Example 43-B, 4-Amino-2-{8-[(4-fluorophenyl)methyl]imidazo[1,2-a]pyrazin-6-yl}-5-(4-hydroxyphenyl)-5-methyl-5,7-dihydro-6H-pyrrolo[2,3-d]pyrimidin-6-one] | 101 | 142 | 0.457 | –
18 | CC1(c2ccc(O)cc2)C(=O)Nc2nc(-c3cn4ncnc4c(CCC(F)(F)C(F)(F)F)n3)nc(N)c21 (stereo not drawn) [Example 80-B, 4-Amino-5-(4-hydroxyphenyl)-5-methyl-2-(8-(3,3,4,4,4-pentafluorobutyl)-[1,2,4]triazolo[1,5-a]pyrazin-6-yl)-5,7-dihydro-6H-pyrrolo[2,3-d]pyrimidin-6-one] | 70 | 19 | 9.98 | –
19 | CC1(c2cccc(O)c2)C(=O)Nc2nc(-c3cn4ccnc4c(Cc4ccccc4)n3)nc(N)c21 (stereo not drawn) [Example 123-B, 4-Amino-2-(8-benzyl-imidaxol[1,2-a]pyrazin-6-yl)-5-(3-hydroxyphenyl)-5-methyl-5,7-dihydro-6H-pyrrolo[2,3-d]pyrimidin-6-one] | 107 | 768 | 0.372 | –
20 | CCCCc1nc(-c2nc(N)c3c(n2)NC(=O)C3(C)c2cc(O)c(Cl)c(F)c2)cn2ccnc12 (stereo not drawn) [Example 39-B, 4-Amino-2-(8-butylimidazo[1,2-a]pyrazin-6-yl)-5-(4-chloro-3-fluoro-5-hydroxyphenyl)-5-methyl-5,7-dihydro-6H-pyrrolo[2,3-d]pyrimidin-6-one] | 101 | 873 | 0.446 | –
21 | CC1(c2cc(O)c(Cl)cn2)C(=O)Nc2nc(-c3cn4ccnc4c(Cc4cc(F)cc(F)c4F)n3)nc(N)c21 (stereo not drawn) [Example 103-B, 4-Amino-5-(5-chloro-4-hydroxypyridin-2-yl)-5-methyl-2-{8-[(2,3,5-trifluorophenyl)methyl]imidazo[1,2-a]pyrazin-6-yl}-5,7-dihydro-6H-pyrrolo[2,3-d]pyrimidin-6-one] | 78 | 231 | 0.175 | –
